# Data published in publication PMC12814185, “Receptor-Mediated Shuttling of a D‑Amino Acid Peptide Achieves High Nanomolar Cytosolic Concentrations” (Journal of the American Chemical Society, 2025).
# Tested on: HEK293 cells
# Assay: Resazurin based cell viability assay, Nutlin-3a
# Details: 72 h incubation, HEK293 and HEK293_CMKLR1-eYFP
# Protocol: performed in DMEM with 10% FBS due to its higher pH buffering capacity compared to DMEM/F12 with […]
# Calcium flux assay was performed with cells expressing CMKLR1 and the chimeric G protein Δ6Gαqi4myr.
# The stably transfected COS-7_CMKLR1-eYFP_ Δ6Gαqi4myr cells were seeded at 25,000 cells per well into poly-ᴅ-lysine-coated 96-well plates (black µCLEAR, Greiner). The next day, cells were incubated with 2.3 µM Fluo-2-AM (Abcam) and 0.06% (v/v) Pluronic-F127 (Sigma) in assay buffer (2.5 mM probenecid (Sigma), 20 mM 4-(2-hydroxyethyl)-1-piperazineethanesulfonic acid (HEPES, Sigma) in Hanks' Balanced Salt Solution (HBSS, Biowest), pH 7.5) for 1 h. This solution was replaced by assay buffer, and basal Ca2+ signal (λex = 485 nm, λem = 525 nm) was measured for 20 s with a Flexstation 3 plate reader (Molecular Devices). Peptide dilutions were added, and the Ca2+ response was measured for 40 s. The maximum signal over baseline was calculated and normalized to peptide 1 (N3-cC9). Non-linear regression was performed using Prism 10 (GraphPad). Experiments were performed in technical duplicates and at least […]
# Cells were then washed and a resazurin-based cell viability assay was performed. […] After 2h incubation, cell viability wa s measured using the fluorescence of resorufin (λex = 550 nm, λem = 595 nm). […]
# Peptide internalization was evaluated by fluorescence microscopy. […]
smiles,measurement,value
COc1ccc(C2=N[C@@H](c3ccc(Cl)cc3)[C@@H](c3ccc(Cl)cc3)N2C(=O)N2CCNC(=O)C2)c(OC(C)C)c1 [nutlin-3a],cytotoxicity,noncytotoxic response
